Results published in PubChem BioAssay (NCI).
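1) Cells in 96-well plates. 2) Compound, 48 h, 5 concentrations. 3) Linear interpolation between surrounding doses. 4) Unreached endpoint = highest concentration. GI50: concentration for 50% inhibition of growth. TGI is the concentration that stops growth completely.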

Key:
Assay in all cases: NCI tumour cell line growth inhibition, 48 h
SN12C renal = tested on: SN12C renal
HCT-116 colon = tested on: HCT-116 colon
SK-OV-3 ovarian = tested on: SK-OV-3 ovarian
UACC-62 melanoma = tested on: UACC-62 melanoma
RPMI-8226 leukemia = tested on: RPMI-8226 leukemia
OVCAR-8 ovarian = tested on: OVCAR-8 ovarian
HOP-62 NSCLC = tested on: HOP-62 NSCLC
CAKI-1 renal = tested on: CAKI-1 renal
CCRF-CEM leukemia = tested on: CCRF-CEM leukemia
SR leukemia = tested on: SR leukemia

| SMILES | TGI (SN12C renal) | TGI (HCT-116 colon) | TGI (SK-OV-3 ovarian) | TGI (UACC-62 melanoma) | TGI (RPMI-8226 leukemia) | TGI (OVCAR-8 ovarian) | TGI (HOP-62 NSCLC) | TGI (CAKI-1 renal) | TGI (CCRF-CEM leukemia) | TGI (SR leukemia) | GI50 (SN12C renal) | GI50 (HCT-116 colon) | GI50 (SK-OV-3 ovarian) | GI50 (UACC-62 melanoma) | GI50 (RPMI-8226 leukemia) | GI50 (OVCAR-8 ovarian) | GI50 (HOP-62 NSCLC) | GI50 (CAKI-1 renal) | GI50 (CCRF-CEM leukemia) | GI50 (SR leukemia) |
| --- | --- | --- | --- | --- | --- | --- | --- | --- | --- | --- | --- | --- | --- | --- | --- | --- | --- | --- | --- | --- |
| O=c1c([Se]c2coc3ccccc3c2=O)coc2ccccc12 | 28.2 µM | 12.3 µM | 29.8 µM | 30.9 µM | 56.3 µM | 25.5 µM | 21.1 µM | 39.8 µM | > 100 µM | 22.4 µM |  |  |  |  |  |  |  |  |  |  |
| CC[C@@H]1OC2(C)CC(S(=O)(=O)c3ccccc3)CC1O2 (stereo partly specified) | > 100 µM | > 100 µM | > 100 µM | > 100 µM | > 100 µM | > 100 µM | > 100 µM | > 100 µM | > 100 µM | > 100 µM |  |  |  |  |  |  |  |  |  |  |
| CCS/C(Nc1ccccc1)=C(\C#N)C(=O)Nc1ccc(OC)cc1 | > 100 µM | 16.4 µM | 50.2 µM | > 100 µM | > 100 µM | > 100 µM | > 100 µM | > 100 µM | > 100 µM | > 100 µM | 5.91 µM | 1.95 µM | 3.28 µM | 2.58 µM | 2.52 µM | 4.37 µM | 5.62 µM | 3.39 µM | 1.83 µM | 1.54 µM |
| C[Si](C)(C)/C=C/CN1C(=O)CCC1O (stereo unspecified) | > 100 µM | > 100 µM | > 100 µM | > 100 µM | > 100 µM | > 100 µM | > 100 µM | > 100 µM | > 100 µM | > 100 µM |  |  |  |  |  |  |  |  |  |  |
| FC(F)(F)c1ccc(-c2cnc(Br)nc2NC2CCCCCC2)cc1 | > 100 µM | > 100 µM | > 100 µM | > 100 µM | > 100 µM | > 100 µM | > 100 µM | > 100 µM | > 100 µM | > 100 µM | > 100 µM | 14.4 µM | > 100 µM | 42.6 µM | 7.98 µM | > 100 µM | > 100 µM | 92.9 µM | 84.7 µM | 30.5 µM |
| C[Se]C(=O)CC1=C2C=C(F)C=CC2/C(=C\c2ccc(S(C)=O)cc2)C1C (stereo unspecified) | 1.34 µM | 1.64 µM | 1.58 µM | 2.3 µM | 6.15 µM | > 100 µM | 0.331 µM | 0.478 µM | > 20.6 µM | > 100 µM | 0.0401 µM | 0.119 µM | 0.0493 µM | 0.41 µM | 2.31 µM | 0.0447 µM | < 0.01 µM | 0.0253 µM | 0.208 µM | 1.17 µM |
| O=C(/C=C/c1ccco1)Nc1ncc(Cc2ccc(F)cc2)s1 | > 100 µM | > 100 µM | > 100 µM | > 100 µM | > 100 µM | > 100 µM | > 100 µM | > 100 µM | > 100 µM | > 68 µM | 0.189 µM | 0.0408 µM | 0.0455 µM | 0.0555 µM | 0.0721 µM | 0.152 µM | 0.145 µM | 0.0525 µM | 0.0614 µM | 0.0356 µM |
| COc1ccc(C(O)c2cc3c(N)c(C(=O)Nc4cccc(Br)c4)sc3nc2C)cc1 (stereo unspecified) | > 31.9 µM | 16.8 µM | > 65.1 µM | > 38.6 µM | 33.6 µM | > 55.6 µM | > 42.2 µM | > 32 µM | > 100 µM | > 32.7 µM | 0.21 µM | 0.107 µM | 0.197 µM | 0.309 µM | 0.371 µM | 0.139 µM | 0.207 µM | 0.141 µM | 0.121 µM | 0.0979 µM |
| COC1=C(OC)CCC(/C(C#N)=C/c2ccc(OC)c(OC)c2)=C1 | > 100 µM | > 100 µM | 91.3 µM | > 100 µM | > 100 µM | > 100 µM | 86.9 µM | > 100 µM | > 100 µM | > 100 µM |  |  |  |  |  |  |  |  |  |  |
| O=[N+]([O-])c1ccc(Cl)c(C2SCc3nc4ccccc4n32)c1 (stereo unspecified) | > 100 µM | > 100 µM | 88 µM | > 100 µM | > 100 µM | > 100 µM |  | 76.1 µM | > 100 µM | > 100 µM |  |  |  |  |  |  |  |  |  |  |
| CC(C)C(N)(C(=O)O)c1ccccc1 (stereo unspecified) | > 100 µM | > 100 µM | > 100 µM | > 100 µM | > 100 µM | > 100 µM | > 100 µM | > 100 µM | > 100 µM | > 100 µM |  |  |  |  |  |  |  |  |  |  |
| CC(=O)/C(C)=N/N/C(N)=N\S(=O)(=O)c1cc(C(=O)Nc2ccccc2)c(Cl)cc1SCc1ccccc1 | > 100 µM | > 100 µM | > 100 µM | > 100 µM | > 100 µM | > 100 µM | 0.385 µM | > 100 µM | > 100 µM | > 100 µM | 28.2 µM | 0.337 µM | > 100 µM | 16.4 µM | 7.01 µM | 8.6 µM | 0.0554 µM | > 100 µM | 98.5 µM | 6.2 µM |
| O=C(/C=C\c1ccnc2ccccc12)c1ccc([N+](=O)[O-])cc1 | > 64.2 µM | 3.15 µM | > 100 µM | > 86.3 µM | 4.6 µM | > 100 µM | > 80.1 µM | > 100 µM | > 48.1 µM | 7.37 µM | 16.1 µM | 1.59 µM | > 100 µM | 12.5 µM | 1.87 µM | 12.4 µM | > 38.4 µM | 13.2 µM | 3.41 µM | 2.28 µM |
| Cn1ccnc1C(=O)/C=C/c1ccc(C(=O)Nc2nc3ccccc3[nH]2)cc1 | > 25 µM | > 25 µM |  | > 25 µM | > 25 µM | > 25 µM | > 25 µM | > 25 µM | > 25 µM | > 25 µM | 9.93 µM | 1.5 µM |  | 6.07 µM | 0.81 µM | 8.99 µM | 6.42 µM | 1.63 µM | 1.28 µM | 0.956 µM |
| CCOC(=O)C12CC1(C(=O)OCC)C1CCC2C1 (stereo unspecified) | > 100 µM | > 100 µM | > 100 µM | > 100 µM | > 100 µM | > 100 µM | > 100 µM | > 100 µM | > 100 µM | > 100 µM |  |  |  |  |  |  |  |  |  |  |
| Oc1ccc2ccccc2c1N=Nc1ccccc1 | > 100 µM | > 100 µM | > 100 µM | > 100 µM | > 100 µM | > 100 µM | > 100 µM | > 100 µM | > 100 µM | > 100 µM |  |  |  |  |  |  |  |  |  |  |
| C[C@H]1[C@@H](OCC(CO[C@H]2O[C@@H]3O[C@@]4(C)CC[C@H]5[C@H](C)CC[C@@H]([C@H]2C)[C@@]35OO4)=NOCC(=O)O)OC2O[C@@]3(C)CC[C@H]4[C@H](C)CC[C@@H]1[C@@]24OO3 (stereo partly specified) | 1.02 µM | 13.7 µM | 19.6 µM | 15.5 µM |  | 16.4 µM | 21.7 µM | 3.12 µM | 12.5 µM | 11.8 µM | 0.0215 µM | < 0.01 µM | 0.786 µM | 0.0336 µM | < 0.01 µM | 0.0332 µM | 0.229 µM | 0.117 µM | < 0.01 µM | < 0.01 µM |
| O=c1[nH]c(-c2ccc(C(F)(F)F)cc2)nc2c1CSCC2 | > 100 µM | > 100 µM | 99.8 µM | > 100 µM | > 100 µM | 99 µM | 51.2 µM | > 100 µM | > 100 µM | > 100 µM | > 100 µM | > 63.7 µM | 30 µM | > 100 µM | > 100 µM | 26.3 µM | 17.5 µM | 13.7 µM | > 100 µM | > 100 µM |
| NC(CSC(c1ccccc1)(c1ccccc1)c1ccc2ccccc2c1)C(=O)O (stereo unspecified) | 18.2 µM | 0.958 µM | 29.6 µM | 13.6 µM |  | 21.3 µM | 14.4 µM | 34.6 µM | > 39.4 µM | > 40.5 µM | 0.0874 µM | 0.0312 µM | 0.0806 µM | 0.0628 µM | 0.0327 µM | 0.0804 µM | 0.114 µM | 0.0998 µM | 0.0372 µM | 0.0869 µM |
| CN(O)C(=O)Cc1ccccc1 | > 100 µM | > 100 µM | > 100 µM | > 100 µM | > 100 µM | > 100 µM | > 100 µM | > 100 µM | > 100 µM | > 100 µM |  |  |  |  |  |  |  |  |  |  |
| c1ccc(-c2nc(N3CCNCC3)c3nc(-c4ccccc4)oc3n2)cc1 | 3.29 µM | 2.9 µM | 3.71 µM | 3.23 µM | 4.64 µM |  | 3.94 µM | 2.94 µM | 3.83 µM | 1.2 µM | 1.69 µM | 1.25 µM | 2 µM | 1.78 µM | 2.08 µM |  | 1.98 µM | 1.55 µM | 1.38 µM | 0.298 µM |
| CC1=C2C(c3ccccc3)(c3ccccc3)C3C=CC2(C=N3)N(C(=O)NC2CCCCC2)C1=O (stereo unspecified) | 31.7 µM | 29.4 µM | 44.3 µM | 33.4 µM | 37.8 µM | 33.6 µM | 31.7 µM | 26.1 µM | 36.1 µM | 37.7 µM |  |  |  |  |  |  |  |  |  |  |
| CCC1(OC(C)=O)C(=O)OCc2c1cc1n(c2=O)Cc2cc3ccccc3nc2-1 (stereo unspecified) | > 91.9 µM | > 37.5 µM | > 69.6 µM |  | > 100 µM | > 100 µM | 9.81 µM | 36 µM | 1.93 µM | 11.9 µM |  |  |  |  |  |  |  |  |  |  |
| O=C1c2cc(CCl)sc2C(=O)c2ccsc21 | 0.842 µM | 0.39 µM | 3.36 µM | 0.319 µM | 0.558 µM | 0.674 µM |  | 3.09 µM | 1.22 µM | 0.571 µM |  |  |  |  |  |  |  |  |  |  |
